Measured values: patent publication US20250312469A1 (CANGET BIOTEKPHARMA, priority 2024, published 2025)

Assays:
SK-ES-1 OS tumors = test: SK-ES-1 osteosarcoma xenograft; type: in vivo, SCID mice; conditions: weekly×4
in vitro = conditions: both, human, whole blood (sodium heparin), pH 7.4

SMILES: COc1cccc2c1C(=O)c1c(O)c3c(c(O)c1C2=O)C[C@@](O)(C(=O)CO)C[C@@H]3O[C@H]1C[C@H](N)[C@H](O)[C@H](C)O1 [DOX, doxorubicin, reference compound]
- antitumor efficacy (SK-ES-1 OS tumors): not seen

SMILES: NS(=O)(=O)c1cc(C2(O)NC(=O)c3ccccc32)ccc1Cl (centres unmarked) [chlorthalidone]
- blood plasma ratio at 60 min, 1 μM (in vitro): 8.73
